Where “and” joins values, the source holds several entries; their conditions need not be identical. Equal values may be shown once.
What was measured:
CD14+ monocytes = assay: M-CSF stimulated proliferation of CD14+ monocytes (CellTiter-Glo); assay type: cell-based, human; conditions: 50 ng/mL M-CSF, 6 days incubation
Description: Investigation of the effect of TNO155 on M-CSF stimualted proliferation of CD14+ monocytes. Peripheral blood mononuclear cells (PBMC) were isolated from the whole blood of two donors (donor 1670 and […]) by CPT tubes and spinning at 1800 rpm for 20 minutes. CD14 positive monocytes were then isolated from PBMC using human Pan Monocyte Isolation Kit (Miltenyi Biotec #130-096-537). 5000 monocytes suspended in 100 μL RPMI media were seeded in 96 well plates with 50 ng/mL recombinant M-CSF. 24 hours later, TNO155 was added at the indicated final concentrations. A CellTiter-Glo® (CTG) cell viability assay was performed according to manufacturer's instructions using a separate plate with identically seeded cells and also performed for all plates after 6 days of incubation with TNO155. The Day 6 measurements were normalized with DMSO treated groups as 100% to evaluate the TNO155 effects on the M-CSF stimulated proliferation of monocytes and the Day 0 cell seeding measurement was indicated by the light dotted line.

in vivo = conditions: mouse
[1] = tested on: phosphorylated ERK1/2 (pERK); assay: in vitro pERK inhibition in DETROIT-562; assay type: cell-based; conditions: Homo sapiens; DETROIT-562 cells
From the text: (§1) SHP2 inhibition can be measured by assessing biomarkers within the MAPK signaling pathway, such as decreased levels of phosphorylated ERK1/2 (pERK) and downregulation of dual specificity phosphatase 6 (DUSP6) mRNA transcript.

MC38 cell line = MC38 cell line in vitro proliferation/viability; assay type: cell-based, mouse; conditions: MC38 (PTPN11 G503V) in vitro, absence of immune cells
[2] = tested on: phosphorylated ERK1/2 (pERK); assay: in vitro pERK inhibition in KYSE-520; assay type: cell-based; conditions: Homo sapiens; KYSE-520 cells
From the text: as §1

MC38 xenografts = MC38 xenografts in immunocompromised NSG mice; assay type: in vivo, mouse
[3] = tested on: DETROIT-562 (pharyngeal squamous cell carcinoma) cancer cell line; assay: antiproliferation in DETROIT-562; assay type: cell-based; conditions: Homo sapiens; DETROIT-562 cells
[4] = tested on: EGFR-dependent DETROIT-562 cancer cell line; assay: in vivo SHP2 inhibition and efficacy, DETROIT-562 xenograft; conditions: oral 20 mg/kg
From the text: as §1

[5] = tested on: KYSE-520 (esophageal squamous cell carcinoma) cancer cell line; assay: antiproliferation in KYSE-520; assay type: cell-based; conditions: Homo sapiens; KYSE-520 cells
From the text: as §1

MC38 tumors = assay: MC38 syngeneic tumors in immune-competent C57BL/6 mice, anti-tumor activity; assay type: in vivo, mouse; conditions: day 14 post-first dose, TNO155 20 mg/kg BID, anti-PD1 10 mg/kg QW
HNSCC = HNSCC patients progressed on platinum-based chemotherapy; cited from earlier work
rodent PD-1 = assay: cross-reactivity with rodent PD-1; assay type: binding
IL-2 production = assay type: cell-based; conditions: human blood ex vivo, super antigen stimulation with Staphylococcal enterotoxin B (SEB)
human PD-1 = target: T1, human PD-1 (human, UniProt Q15116 25-167, limits assumed); assay: Biacore (SPR); format not stated
T1 construct: also called human PD1 antigen; Programmed Death 1
T1 sequence (Q15116 25-167 limits assumed): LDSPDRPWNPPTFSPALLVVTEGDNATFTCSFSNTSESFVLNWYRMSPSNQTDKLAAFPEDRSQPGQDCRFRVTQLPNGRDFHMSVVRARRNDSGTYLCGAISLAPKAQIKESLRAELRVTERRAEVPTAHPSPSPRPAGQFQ

## C[C@@H]1OCC2(CCN(c3cnc(Sc4ccnc(N)c4Cl)c(N)n3)CC2)[C@@H]1N [TNO155, (3S,4S)-8-(6-amino-5-((2-amino-3-chloropyridin-4-yl)thio)pyrazin-2-yl)-3-methyl-2-oxa-8-azaspiro[4.5]decan-4-amine]
CD14+ monocytes
  M-CSF stimulated proliferation of CD14+ monocytes: blocked
In vivo
  MTD: 20 mg/kg
[1]
  IC50: 35 nM
MC38 cell line
  effect on cell proliferation or viability: no effect on cell proliferation or viability
[2]
  IC50: 8 nM and 0.0034 µg/mL
MC38 xenografts; 20 mg/kg BID, MC38 in NSG mice
  anti-tumor activity: lack of anti-tumor activity
MC38 xenografts; MC38 with G503V mutation
  impact on downstream MAPK-signaling markers (phospho-ERK, phospho-RSK) in tumor cells: no impact
[3]
  IC50: 470 nM
[4]; DETROIT-562 in vivo
  decrease in DUSP6 mRNA transcript: approximately 95%
[4]; twice-daily schedule, DETROIT-562
  tumor regression: 47%
[5]
  IC50: 100 nM
MC38 tumors
  treatment/control (T/C): 33.3%

## nivolumab: anti-programmed death-1 (PD-1) antibody
HNSCC
  survival rate at one year: 36%

B1: PDR001 (spartalizumab) (antibody, V domains shown)
VH: EVQLVQSGAEVKKPGESLRISCKGSGYTFTTYWMHWVRQATGQGLEWMGNIYPGTGGSNFDEKFKNRVTITADKSTSTAYMELSSLRSEDTAVYYCTRWTTGTGAYWGQGTTVTVSS
VL: EIVLTQSPATLSLSPGERATLSCKSSQSLLDSGNQKNFLTWYQQKPGQAPRLLIYWASTRESGVPSRFSGSGSGTDFTFTISSLEAEDAATYYCQNDYSYPYTFGQGTKVEIK
Rodent PD-1
  cross-reactivity with rodent PD-1: does not cross-react
IL-2 production
  enhancement of IL-2 production: approximately 2 fold
Human PD-1
  Kd: 0.827 nM

From patent US20220160706A1, “PHARMACEUTICAL COMBINATION COMPRISING TNO155 AND A PD-1 INHIBITOR” (NOVARTIS AG, priority 2019, published 2022)
